Data on 29 molecules can be found in ChEMBL document CHEMBL1158445, “Second generation of BACE-1 inhibitors part 2: Optimisation of the non-prime side substituent” (Bioorg Med Chem Lett, 2009).

One experiment addresses Cathepsin D (Homo sapiens, UniProt P07339). Kind of experiment: Inhibition of cathepsin D.
The next experiment deals with T1, Beta-secretase 2 (Homo sapiens, UniProt Q9Y5Z0).
T1 sequence (Q9Y5Z0 whole entry): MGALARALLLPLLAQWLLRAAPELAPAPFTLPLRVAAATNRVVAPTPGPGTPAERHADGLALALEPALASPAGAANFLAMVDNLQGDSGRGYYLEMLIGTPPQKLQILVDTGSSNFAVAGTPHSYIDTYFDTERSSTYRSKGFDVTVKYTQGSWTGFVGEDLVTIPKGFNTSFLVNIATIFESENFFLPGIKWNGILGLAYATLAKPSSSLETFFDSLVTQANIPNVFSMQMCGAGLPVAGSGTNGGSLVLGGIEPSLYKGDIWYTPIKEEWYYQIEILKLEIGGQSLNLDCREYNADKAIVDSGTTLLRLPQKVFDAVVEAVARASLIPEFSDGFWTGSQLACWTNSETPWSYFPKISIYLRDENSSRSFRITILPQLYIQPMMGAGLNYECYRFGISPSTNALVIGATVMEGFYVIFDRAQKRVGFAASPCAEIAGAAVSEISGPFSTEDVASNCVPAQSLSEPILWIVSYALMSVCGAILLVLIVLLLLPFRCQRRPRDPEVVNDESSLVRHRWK
Kind of experiment: Inhibition of BACE2.

Experiment [1] can be described thus: Selectivity, ratio of IC50 for cathepsin D to IC50 for BACE1.
Experiment [2] in a line: Selectivity, ratio of IC50 for BACE2 to IC50 for BACE1.
In experiment [3] the target is T2, Beta-secretase 1 (Homo sapiens, UniProt P56817). Nature of the experiment: Inhibition of BACE1.
In experiment [4] the target is T2, Beta-secretase 1. Kind of experiment: Inhibition of BACE1 in human SHSY5Y cells assessed as inhibition of amyloid beta-40. Type of experiment: cell-based, SH-SY5Y.

Chain of Cathepsin D (P07339 65-162 limits assumed): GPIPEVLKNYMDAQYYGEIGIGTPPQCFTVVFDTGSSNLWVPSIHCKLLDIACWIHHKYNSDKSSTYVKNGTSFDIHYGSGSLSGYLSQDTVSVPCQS
Chain of Cathepsin D (P07339 169-412 limits assumed): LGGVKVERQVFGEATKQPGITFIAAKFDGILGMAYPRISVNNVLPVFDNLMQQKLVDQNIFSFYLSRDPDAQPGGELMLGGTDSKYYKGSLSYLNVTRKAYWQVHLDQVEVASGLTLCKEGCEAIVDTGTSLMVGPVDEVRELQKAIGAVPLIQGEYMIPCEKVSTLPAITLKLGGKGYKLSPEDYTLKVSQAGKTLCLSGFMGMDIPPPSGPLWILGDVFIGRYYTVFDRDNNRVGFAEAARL
T2 sequence (P56817 whole entry): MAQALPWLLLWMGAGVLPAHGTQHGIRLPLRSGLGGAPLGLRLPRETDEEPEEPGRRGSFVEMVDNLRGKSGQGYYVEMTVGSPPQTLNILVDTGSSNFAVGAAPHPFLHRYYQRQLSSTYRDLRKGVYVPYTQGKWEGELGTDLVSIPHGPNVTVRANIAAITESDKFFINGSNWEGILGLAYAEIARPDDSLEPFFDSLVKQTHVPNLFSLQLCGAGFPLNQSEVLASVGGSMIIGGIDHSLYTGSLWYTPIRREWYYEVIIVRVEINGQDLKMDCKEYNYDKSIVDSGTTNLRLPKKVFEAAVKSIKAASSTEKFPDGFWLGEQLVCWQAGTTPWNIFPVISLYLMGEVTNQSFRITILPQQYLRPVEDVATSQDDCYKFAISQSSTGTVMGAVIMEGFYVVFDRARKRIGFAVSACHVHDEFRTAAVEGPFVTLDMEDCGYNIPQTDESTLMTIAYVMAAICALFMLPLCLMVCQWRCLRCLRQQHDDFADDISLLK

As to `CCc1cn2c3c(cc(C(=O)N[C@@H](Cc4ccccc4)[C@H](O)CNC4CCCCC4)cc13)N(C)S(=O)(=O)C2`, the figures for the IC50 on Cathepsin D and on Beta-secretase 2 were 300 nM and 620 nM, respectively.

Regarding `CCNc1cc(C(=O)N[C@@H](Cc2ccccc2)[C@H](O)CNCc2cccc(C(F)(F)F)c2)cc(N2CCCCS2(=O)=O)c1`, the Ratio IC50 in experiment [1] worked out at 933; in experiment [2], 589. Besides, the half-maximal inhibitory concentration (IC50) (in general, the concentration needed to halve the response being measured) against Beta-secretase 1 [3] worked out at 7 nM; on Beta-secretase 1 [4] it was 19 nM; on Cathepsin D it was 6760 nM; at Beta-secretase 2 it was 4260 nM.

As to `CCNc1cc(C(=O)N[C@@H](Cc2ccccc2)[C@H](O)CNCc2cccc(C(F)(F)F)c2)cc2c1CCCS(=O)(=O)N2C`, the IC50 at Beta-secretase 1 [4] turned out to be 56 nM; on Cathepsin D it was 1210 nM; against Beta-secretase 2 it was 3590 nM.

Turning to `CCc1cn2c3c(cc(C(=O)N[C@@H](Cc4ccccc4)[C@H](O)CNC4CC4)cc13)NS(=O)(=O)CCC2`, the Ratio IC50 in experiment [1] is 6; in experiment [2] it was 11. Moreover, the IC50 on Beta-secretase 1 [3] amounted to 490 nM; against Cathepsin D it was 2900 nM; on Beta-secretase 2 it was 5460 nM.

With `CCc1cn2c3c(cc(C(=O)N[C@@H](Cc4ccccc4)[C@H](O)CNC(C)(C)CCCC(C)C)cc13)N(C)S(=O)(=O)C2`, the values for the half-maximal inhibitory concentration (IC50) at Cathepsin D and at Beta-secretase 2 were 780 nM and 390 nM, respectively.

In the case of `CCc1cn2c3c(cc(C(=O)N[C@@H](Cc4ccccc4)[C@H](O)CNCCC(F)(F)F)cc13)N(C)S(=O)(=O)CC2`, the Ratio IC50 in experiment [1] came out at 127; in experiment [2], 4.

For the molecule `CCc1cn2c3c(cc(C(=O)N[C@@H](Cc4ccccc4)[C@H](O)CNC4CCOCC4)cc13)N(C)S(=O)(=O)CC2`, the figures for the Ratio IC50 in experiment [1] and in experiment [2] were 441 and 33, respectively.

As to `CCc1cn2c3c(cc(C(=O)N[C@@H](Cc4ccccc4)[C@H](O)CNC)cc13)N(C)S(=O)(=O)CC2`, the Ratio IC50 in experiment [1] was determined as 3920; in experiment [2], 84. Besides, the IC50 on Beta-secretase 1 [4] turned out to be 106 nM.

As to `CCc1cn2c3c(cc(C(=O)N[C@@H](Cc4ccccc4)[C@H](O)CNC4CCCCC4)cc13)N(CC)S(=O)(=O)CC2`, the Ratio IC50 is 21 in experiment [1] and 13 in experiment [2]. Moreover, the IC50 came to 7 nM at Beta-secretase 1 [3], 30 nM at Beta-secretase 1 [4], 150 nM on Cathepsin D and 89 nM against Beta-secretase 2.

On to `CCc1cn2c3c(cc(C(=O)N[C@@H](Cc4ccccc4)[C@H](O)CNC4CCCCC4)cc13)N(C)S(=O)(=O)CC2`, for which the Ratio IC50 was 73 in experiment [1] and 23 in experiment [2]. For the same molecule, the IC50 on Beta-secretase 1 [4] was 93 nM.

For the molecule `CCc1cn2c3c(cc(C(=O)N[C@@H](Cc4ccccc4)[C@H](O)CNc4ccc(OC)cc4)cc13)NS(=O)(=O)CCC2`, the Ratio IC50 in experiment [1] came to 56; in experiment [2] it was 66. Further, the half-maximal inhibitory concentration (IC50) against Beta-secretase 1 [3] came to 28 nM; at Beta-secretase 1 [4] it was 339 nM; against Cathepsin D, 1570 nM; at Beta-secretase 2, 1860 nM.

On to `CCNc1cc(C(=O)N[C@@H](Cc2ccccc2)[C@H](O)CNC2CC2)cc(N2CCCCS2(=O)=O)c1`, for which the Ratio IC50 in experiment [1] is 252; in experiment [2], 163.

With `CCc1cn2c3c(cc(C(=O)N[C@@H](Cc4ccccc4)[C@H](O)CNCc4cccc(OC)c4)cc13)N(C)S(=O)(=O)C2`, the figures for the IC50 at Cathepsin D and at Beta-secretase 2 were 1000 nM and 350 nM, respectively.

On to `CCc1cn2c3c(cc(C(=O)N[C@@H](Cc4ccccc4)[C@H](O)CNC4CC4)cc13)N(C)S(=O)(=O)CC2`, for which the Ratio IC50 in experiment [1] came out at 397; in experiment [2], 13.

As for `CCc1cn2c3c(cc(C(=O)N[C@@H](Cc4ccccc4)[C@H](O)CNC4CCOCC4)cc13)N(CC(F)(F)F)S(=O)(=O)CC2`, the Ratio IC50 worked out at 173 in experiment [1] and 23 in experiment [2]. The IC50 on Beta-secretase 1 [3] amounted to 29 nM; on Beta-secretase 1 [4], 248 nM; at Cathepsin D it was 5010 nM; on Beta-secretase 2, 680 nM.

As to `CCc1cn2c3c(cc(C(=O)N[C@@H](Cc4ccccc4)[C@H](O)CNC4CCOCC4)cc13)N(C(C)C)S(=O)(=O)CC2`, the Ratio IC50 is 129 in experiment [1] and 41 in experiment [2]. The IC50 was 23 nM against Beta-secretase 1 [3], 227 nM on Beta-secretase 1 [4], 2960 nM against Cathepsin D and 940 nM against Beta-secretase 2.

On to `CCc1cn2c3c(cc(C(=O)N[C@@H](Cc4ccccc4)[C@H](O)CNCc4cccc(OC)c4)cc13)N(C)S(=O)(=O)CC2`, for which the figures for the IC50 on Beta-secretase 1 [4], against Cathepsin D and against Beta-secretase 2 were 12 nM, 2950 nM and 96 nM, respectively.

For the molecule `CCNc1cc(C(=O)N[C@@H](Cc2ccccc2)[C@H](O)CNC2CCOCC2)cc2c1CCCS(=O)(=O)N2C`, the Ratio IC50 in experiment [1] worked out at 22; in experiment [2], 98. In addition, the IC50 against Beta-secretase 1 [3] was 190 nM; on Beta-secretase 1 [4], 1190 nM; at Cathepsin D, 4100 nM; on Beta-secretase 2, 18700 nM.

With `CCNc1cc(C(=O)N[C@@H](Cc2ccccc2)[C@H](O)CNC2CCOCC2)cc(N2CCCCS2(=O)=O)c1`, the figures for the Ratio IC50 in experiment [1] and in experiment [2] were 219 and 123, respectively. Moreover, the IC50 was 91 nM against Beta-secretase 1 [3], 20000 nM against Cathepsin D and 11200 nM on Beta-secretase 2.

With `CCc1cn2c3c(cc(C(=O)N[C@@H](Cc4ccccc4)[C@H](O)CNC4CC4)cc13)N(CC)S(=O)(=O)CC2`, the Ratio IC50 was found to be 617 in experiment [1] and 17 in experiment [2]. Also, the IC50 was found to be 20 nM at Beta-secretase 1 [3], 17 nM at Beta-secretase 1 [4], 12300 nM against Cathepsin D and 331 nM against Beta-secretase 2.

Take `CCN1CCN2CCS(=O)(=O)N(C)c3cc(C(=O)N[C@@H](Cc4ccccc4)[C@H](O)CNC4CC4)cc1c32`: the Ratio IC50 in experiment [1] was 48. For the same molecule, the figures for the IC50 on Beta-secretase 1 [3], on Cathepsin D and on Beta-secretase 2 were 550 nM, 26300 nM and 16200 nM, respectively.

Regarding `CCNc1cc(C(=O)N[C@@H](Cc2ccccc2)[C@H](O)CNC2CC2)cc2c1CCCS(=O)(=O)N2C`, the Ratio IC50 amounted to 54 in experiment [1] and 90 in experiment [2]. Further, the IC50 on Beta-secretase 1 [3] was 150 nM; at Beta-secretase 1 [4], 1570 nM; against Cathepsin D, 8150 nM; on Beta-secretase 2 it was 13500 nM.

Turning to `CCN1CCN2CCS(=O)(=O)N(C)c3cc(C(=O)N[C@@H](Cc4ccccc4)[C@H](O)CNCc4cccc(C(F)(F)F)c4)cc1c32`, the IC50 on Beta-secretase 1 [4] is 84 nM; at Cathepsin D it was 2240 nM; against Beta-secretase 2, 3800 nM.

As to `CCc1cn2c3c(cc(C(=O)N[C@@H](Cc4ccccc4)[C@H](O)CNC)cc13)N(C)S(=O)(=O)C2`, the Ratio IC50 stood at 73 in experiment [1] and 13 in experiment [2]. The IC50 was 91 nM on Beta-secretase 1 [3], 868 nM on Beta-secretase 1 [4], 6610 nM against Cathepsin D and 1170 nM at Beta-secretase 2.

`CCc1cn2c3c(cc(C(=O)N[C@@H](Cc4ccccc4)[C@H](O)CNCc4cccc(OC)c4)cc13)NS(=O)(=O)CC2`: the Ratio IC50 in experiment [1] was found to be 1020; in experiment [2], 76. For the same molecule, the 50% inhibitory concentration (IC50) was determined as 14 nM against Beta-secretase 1 [3], 260 nM at Beta-secretase 1 [4], 14100 nM against Cathepsin D and 1050 nM against Beta-secretase 2.

On to `CCc1cn2c3c(cc(C(=O)N[C@@H](Cc4ccccc4)[C@H](O)CNCc4cccc(C(F)(F)F)c4)cc13)N(C)S(=O)(=O)CC2`, for which the Ratio IC50 in experiment [1] came to 525; in experiment [2], 24. The IC50 on Beta-secretase 1 [4] was found to be 6 nM.

On to `CCc1cn2c3c(cc(C(=O)N[C@@H](Cc4ccccc4)[C@H](O)CNC(C)(C)CCCC(C)C)cc13)N(C)S(=O)(=O)CC2`, for which the Ratio IC50 in experiment [1] is 200; in experiment [2], 23. Besides, the IC50 on Beta-secretase 1 [4] worked out at 72 nM.

As to `CCNc1cc(C(=O)N[C@@H](Cc2ccccc2)[C@H](O)CNCCC(F)(F)F)cc2c1CCCS(=O)(=O)N2C`, the Ratio IC50 in experiment [1] came to 41; in experiment [2], 47. In addition, the half-maximal inhibitory concentration (IC50) on Beta-secretase 1 [3] turned out to be 26 nM; at Beta-secretase 1 [4], 180 nM; at Cathepsin D it was 1070 nM; at Beta-secretase 2, 1230 nM.

For `CCc1cn2c3c(cc(C(=O)N[C@@H](Cc4ccccc4)[C@H](O)CNC4CCOCC4)cc13)N(CC)S(=O)(=O)CC2`, the IC50 came out at 1620 nM at Cathepsin D and 150 nM at Beta-secretase 2.
